# Values of other authors, collected in US20260256792A1, “TREATMENT OF CHRONIC SPONTANEOUS URTICARIA BY ADMINISTERING (R)-2-[3-[4-AMINO-3-(2-FLUORO-4-PHENOXY-PHENYL)PYRAZOLO[3,4-D]PYRIMIDIN-1-YL]PIPERIDINE-1-CARBONYL]-4-METHYL-4-[4-(OXETAN-3-YL)PIPERAZIN-1-YL]PENT-2-ENENITRILE” (priority 2023, published 2026).
# Test system: mouse model of immune thrombocytopenia
# Details: mouse ITP model; cited from earlier work
structure (smiles),measurement,value
"CC(C)(C=C(C#N)C(=O)N1CCC[C@@H](n2nc(-c3ccc(Oc4ccccc4)cc3F)c3c(N)ncnc32)C1)N1CCN(C2COC2)CC1 [rilzabrutinib, (R)-2-[3-[4-amino-3-(2-fluoro-4-phenoxy-phenyl)pyrazolo[3,4-d]pyrimidin-1-yl]piperidine-1-carbonyl]-4-methyl-4-[4-(oxetan-3-yl)piperazin-1-yl]pent-2-enenitrile]",platelet loss,reduction
